Laboratory results published in PubChem BioAssay AID1259407 (Chemical Carcinogenesis Research Information System (CCRIS), 2018).
Calls of active or inactive are those of the source. No rule for the calls is given here.

System: CCRIS mutagenicity, Ames/micronucleus/aberration tests
Assay: CCRIS mutagenicity studies
[1] = Test System: AMES SALMONELLA TYPHIMURIUM, Strain/Indicator: TA98, Metabolic Activation: NONE, Method: STANDARD PLATE
[2] = Test System: AMES SALMONELLA TYPHIMURIUM, Strain/Indicator: TA100, Metabolic Activation: NONE, Method: STANDARD PLATE
[3] = Test System: CHINESE HAMSTER V-79, Strain/Indicator: V-79/8-AZAGUANINE, Metabolic Activation: NONE, Method: STANDARD PLATE
[4] = Test System: MOUSE LYMPHOMA, Strain/Indicator: L5178Y (TK+/TK-), Metabolic Activation: NONE, Method: SUSPENSION/PLATE
[5] = Test System: Mouse lymphoma, Strain/Indicator: L5178Y (tk+/tk-), Metabolic Activation: None, Method: Suspension/plate
[6] = Test System: Mouse lymphoma, Strain/Indicator: L5178Y (tk+/tk-), Metabolic Activation: Rat, Liver, S-9, Aroclor 1254, Method: Suspension/plate
[7] = Test System: AMES SALMONELLA TYPHIMURIUM, Strain/Indicator: TA98, Metabolic Activation: RAT, LIVER, S-9, AROCLOR 1254, Method: STANDARD PLATE
[8] = Test System: AMES SALMONELLA TYPHIMURIUM, Strain/Indicator: TA100, Metabolic Activation: RAT, LIVER, S-9, AROCLOR 1254, Method: STANDARD PLATE
[9] = Test System: AMES SALMONELLA TYPHIMURIUM, Strain/Indicator: TA102, Metabolic Activation: NONE, Method: STANDARD PLATE

CCN(CCCl)CCCNc1c2ccc(Cl)cc2nc2ccc(OC)cc12
mutagenic call [1]: active; positive | mutagenic call [2]: active; positive | mutagenic call (Test System: AMES SALMONELLA TYPHIMURIUM, Strain/Indicator: TA1535, Metabolic Activation: NONE, Method: STANDARD PLATE): inactive; negative | mutagenic call (Test System: AMES SALMONELLA TYPHIMURIUM, Strain/Indicator: TA1536, Metabolic Activation: NONE, Method: STANDARD PLATE): active; positive | mutagenic call (Test System: AMES SALMONELLA TYPHIMURIUM, Strain/Indicator: TA1537, Metabolic Activation: NONE, Method: STANDARD PLATE): active; positive | mutagenic call (Test System: AMES SALMONELLA TYPHIMURIUM, Strain/Indicator: TA1538, Metabolic Activation: NONE, Method: STANDARD PLATE): active; positive | mutagenic call (Test System: CHINESE HAMSTER OVARY, Strain/Indicator: CHO-K1-BH4 (HGPRT)/6-THIOGUANINE, Metabolic Activation: NONE, Method: SUSPENSION/PLATE): active; positive | mutagenic call (Test System: CHINESE HAMSTER OVARY, Strain/Indicator: CHO-K1-BH4 (HGPRT), Metabolic Activation: NONE, Method: MONOLAYER ASSAY): active; positive | mutagenic call (Test System: CHINESE HAMSTER OVARY, Strain/Indicator: CHO-K1-BH4 (HGPRT), Metabolic Activation: NONE, Method: SUSPENSION/PLATE): active; positive | mutagenic call (Test System: CHINESE HAMSTER V-79, Strain/Indicator: V-79/6-THIOGUANINE, Metabolic Activation: NONE, Method: FLASK ASSAY): active; positive | mutagenic call [3]: active; positive | mutagenic call (Test System: CHO/HGPRT, Strain/Indicator: CHO-K1-BH4, Metabolic Activation: NONE, Method: STANDARD PLATE): active; positive | mutagenic call [4]: active; positive | mutagenic call [5]: active; positive | mutagenic call [6]: inconclusive (previous evaluation equivocal)

COC(=O)CN(N=O)C(N)=O
mutagenic call (Test System: E. COLI B, Strain/Indicator: H/R30R, Metabolic Activation: NONE): active; positive | mutagenic call (Test System: E. COLI B, Strain/Indicator: HS30R, Metabolic Activation: NONE): active; positive

O=S(=O)(O)c1ccc2ccc3cccc4ccc1c2c34
mutagenic call [7]: inactive; negative | mutagenic call [8]: active; positive

Cc1c2ccncc2c(C)c2c1[nH]c1ccccc12
mutagenic call [7]: active; positive | mutagenic call [9]: active; positive | mutagenic call (Test System: CHINESE HAMSTER V-79, Strain/Indicator: V-79 (HPRT)/6-THIOGUANINE, Metabolic Activation: NONE): inactive; negative | mutagenic call (Test System: E. COLI, Strain/Indicator: WP2 TM9, Metabolic Activation: NONE, Method: STANDARD PLATE): inactive; negative | mutagenic call (Test System: MOUSE LYMPHOMA, Strain/Indicator: L5178Y (HPRT)/6-THIOGUANINE, Metabolic Activation: NONE, Method: FLUCTUATION TEST): inactive; negative | mutagenic call (Test System: MOUSE LYMPHOMA, Strain/Indicator: L5178Y (TK+/TK-), Metabolic Activation: NONE, Method: FLUCTUATION TEST): active; positive | mutagenic call [4]: active; positive | mutagenic call [5]: active; positive | mutagenic call [6]: active; positive

C/C=C(/C)C(=O)O[C@@H]1CCN2CC=C(CO)[C@H]12
mutagenic call (Test System: AMES SALMONELLA TYPHIMURIUM, Strain/Indicator: TA100, Metabolic Activation: RAT, LIVER, S-9, SODIUM PHENOBARBITAL AND BETA-NAPHTHOFLAVONE, Method: PREINCUBATION): inactive; negative

C/C=C/C=C/CCCCCCCO
mutagenic call [1]: inactive; negative | mutagenic call (Test System: AMES SALMONELLA TYPHIMURIUM, Strain/Indicator: TA98, Metabolic Activation: RAT, LIVER, S-9, Method: STANDARD PLATE): inactive; negative | mutagenic call [2]: inactive; negative | mutagenic call (Test System: AMES SALMONELLA TYPHIMURIUM, Strain/Indicator: TA100, Metabolic Activation: RAT, LIVER, S-9, Method: STANDARD PLATE): inactive; negative | mutagenic call [9]: inactive; negative | mutagenic call (Test System: AMES SALMONELLA TYPHIMURIUM, Strain/Indicator: TA102, Metabolic Activation: RAT, LIVER, S-9, Method: STANDARD PLATE): inactive; negative

O=C1Cc2cc3ccc([N+](=O)[O-])cc3cc2[C@H](O)[C@H]1O
mutagenic call [1]: inactive; negative

Brc1ccccc1
mutagenic call (End Point: IN VITRO CHROMOSOMAL ABERRATIONS, Test System: CHINESE HAMSTER OVARY CELLS, Metabolic Activation: NONE): inactive; negative | mutagenic call (End Point: IN VITRO CHROMOSOMAL ABERRATIONS, Test System: CHINESE HAMSTER OVARY CELLS, Metabolic Activation: RAT, LIVER, S-9, AROCLOR 1254): inactive; negative | mutagenic call (Test System: AMES SALMONELLA TYPHIMURIUM, Strain/Indicator: TA98, Metabolic Activation: HAMSTER, LIVER, S-9, AROCLOR 1254, Method: PREINCUBATION): inactive; negative | mutagenic call (Test System: AMES SALMONELLA TYPHIMURIUM, Strain/Indicator: TA98, Metabolic Activation: NONE, Method: PREINCUBATION): inactive; negative | mutagenic call (Test System: AMES SALMONELLA TYPHIMURIUM, Strain/Indicator: TA98, Metabolic Activation: RAT, LIVER, S-9, AROCLOR 1254, Method: PREINCUBATION): inactive; negative | mutagenic call (Test System: AMES SALMONELLA TYPHIMURIUM, Strain/Indicator: TA100, Metabolic Activation: HAMSTER, LIVER, S-9, AROCLOR 1254, Method: PREINCUBATION): inactive; negative | mutagenic call (Test System: AMES SALMONELLA TYPHIMURIUM, Strain/Indicator: TA100, Metabolic Activation: NONE, Method: PREINCUBATION): inactive; negative | mutagenic call (Test System: AMES SALMONELLA TYPHIMURIUM, Strain/Indicator: TA100, Metabolic Activation: RAT, LIVER, S-9, AROCLOR 1254, Method: PREINCUBATION): inactive; negative | mutagenic call (Test System: AMES SALMONELLA TYPHIMURIUM, Strain/Indicator: TA1535, Metabolic Activation: HAMSTER, LIVER, S-9, AROCLOR 1254, Method: PREINCUBATION): inactive; negative | mutagenic call (Test System: AMES SALMONELLA TYPHIMURIUM, Strain/Indicator: TA1535, Metabolic Activation: NONE, Method: PREINCUBATION): inactive; negative | mutagenic call (Test System: AMES SALMONELLA TYPHIMURIUM, Strain/Indicator: TA1535, Metabolic Activation: RAT, LIVER, S-9, AROCLOR 1254, Method: PREINCUBATION): inactive; negative | mutagenic call (Test System: AMES SALMONELLA TYPHIMURIUM, Strain/Indicator: TA1537, Metabolic Activation: HAMSTER, LIVER, S-9, AROCLOR 1254, Method: PREINCUBATION): inactive; negative | mutagenic call (Test System: AMES SALMONELLA TYPHIMURIUM, Strain/Indicator: TA1537, Metabolic Activation: NONE, Method: PREINCUBATION): inactive; negative | mutagenic call (Test System: AMES SALMONELLA TYPHIMURIUM, Strain/Indicator: TA1537, Metabolic Activation: RAT, LIVER, S-9, AROCLOR 1254, Method: PREINCUBATION): inactive; negative

Oc1ccc2ccc3c4ccccc4cc4ccc1c2c43
mutagenic call (Test System: AMES SALMONELLA TYPHIMURIUM, Strain/Indicator: TA97, Metabolic Activation: RAT, LIVER, S-9, AROCLOR 1254, Method: STANDARD PLATE): active; positive | mutagenic call [1]: active; positive | mutagenic call [7]: active; positive | mutagenic call [2]: active; positive | mutagenic call [8]: active; positive | mutagenic call (Test System: AMES SALMONELLA TYPHIMURIUM, Strain/Indicator: TA1537, Metabolic Activation: RAT, LIVER, S-9, AROCLOR 1254, Method: STANDARD PLATE): active; positive | mutagenic call [3]: active; positive
